# Literature values, collected in patent US9549925B2, “Lipid-based compositions of antiinfectives for treating pulmonary infections and methods of use thereof” (Insmed Incorporated, priority 2005, dated 2017).
# Settings: free tobramycin, nebulized, nominal dose 300 mg; absorption into the systemic circulation
structure (smiles),measurement,value
"NC[C@H]1O[C@H](O[C@H]2[C@H](O)[C@@H](O[C@H]3O[C@H](CO)[C@@H](O)[C@H](N)[C@H]3O)[C@H](N)C[C@@H]2N)[C@H](N)C[C@@H]1O [tobramycin, Tobramycin]",absorption half-life from the lung,about 1.5 hr
